# Measurements taken from ChEMBL document CHEMBL4402540, “Structure-Activity Relationship Studies of Small Molecule Modulators of the Staphylococcal Accessory Gene Regulator” (J Med Chem, 2020).
# Where a SMILES comes first, the peptide text is derived from it. Bridges are numbered along the chain shown (N, C = ends). [ ]: non-standard residue; d: D form. The star is where a group is joined. X2 = O=C(c1ccccc1)c1ccc(OCCCC(=O)*)cc1; X1 = O=C(CCCOc1ccc(Cc2ccccc2)cc1)*; Dap = NC[C@H](N)C(=O)O
# Assays:
# Staphylococcus aureus [1] = assay: Antibacterial activity against methicillin-resistant Staphylococcus aureus USA300 infected in CD-1 mouse MRSA sepsis model assessed as survival rate at 30 mg/kg, ip after 144 hrs (reference value: 70%); format: functional
# Staphylococcus aureus [2] = assay: Inhibition of AIP biosynthesis in methicillin-resistant Staphylococcus aureus USA300 incubated for 16 hrs by LC-MS analysis; format: functional, organism-based; conditions: USA300, 16 h
# Staphylococcus aureus [3] = assay: Antibacterial activity against methicillin-resistant Staphylococcus aureus infected in BALB/c mouse assessed as reduction in skin ulcer formation at 25 ug, id after 4 days relative to control; format: functional; design: scale not given: the % may be the effect or the level left
# Staphylococcus aureus [4] = assay: Antibacterial activity against methicillin-resistant Staphylococcus aureus infected in BALB/c mouse assessed as reduction in skin ulcer formation at 5 ug, id after 4 days relative to control; format: functional; design: scale not given: the % may be the effect or the level left
# [5] = Activation of AgrC-1 Staphylococcus epidermidis AH3408 incubated for 24 hrs by fluorescence assay
# [6] = biological target: T1, Receptor-histidine kinase AgrC (Staphylococcus aureus, UniProt O07911); assay: Inhibition of AgrC in mid-exponential phase Staphylococcus aureus RN6390B assessed as beta-lactamase activity incubated for 80 mins by spectrophotometric method
# T1 sequence (O07911 whole entry): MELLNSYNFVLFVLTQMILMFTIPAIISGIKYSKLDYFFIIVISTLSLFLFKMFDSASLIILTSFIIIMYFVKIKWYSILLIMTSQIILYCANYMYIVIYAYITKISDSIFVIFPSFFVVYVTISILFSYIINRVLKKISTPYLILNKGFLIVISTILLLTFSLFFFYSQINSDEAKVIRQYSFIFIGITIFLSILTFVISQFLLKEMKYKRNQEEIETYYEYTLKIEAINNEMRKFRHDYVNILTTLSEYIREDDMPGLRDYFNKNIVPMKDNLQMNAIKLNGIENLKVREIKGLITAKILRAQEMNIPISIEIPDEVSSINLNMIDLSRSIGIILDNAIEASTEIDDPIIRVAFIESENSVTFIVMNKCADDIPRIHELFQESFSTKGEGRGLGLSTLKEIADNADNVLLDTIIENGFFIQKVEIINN
# [7] = biological target: T2, Receptor-histidine kinase AgrC (Staphylococcus aureus) (UniProt O07911); assay: Activation of AgrC in early exponential phase Staphylococcus aureus SA502A assessed as beta-lactamase activity incubated for 55 mins by spectrophotometric method
# T2 sequence (whole entry): T1 sequence (O07911 whole entry)
# [8] = biological target: T1, Receptor-histidine kinase AgrC; assay: Inhibition of AgrC in mid-exponential phase Staphylococcus aureus RN8463 assessed as beta-lactamase activity incubated for 80 mins by spectrophotometric method
# Staphylococcus aureus [9] = assay: Agonist activity at AgrC-2 in Staphylococcus aureus RN9372 incubated for 60 to 90 mins by beta-lactamase reporter gene assay
# [10] = Inhibition of AgrC-1 in Staphylococcus aureus RN9222 incubated for 60 to 90 mins in presence of AIP agonist by beta-lactamase reporter gene assay
# [11] = Agonist activity at AgrC-3 in Staphylococcus aureus incubated for 60 to 90 mins in presence of AIP agonist by beta-lactamase reporter gene assay
# [12] = Agonist activity at AgrC-4 in Staphylococcus aureus RN9371 incubated for 60 to 90 mins in presence of AIP agonist by beta-lactamase reporter gene assay
# [13] = Inhibition of AgrC-1 Staphylococcus aureus RN10829 incubated for 45 mins by beta-lactamase reporter gene assay
# Staphylococcus aureus [14] = assay: Agonist activity at AgrC-3 in Staphylococcus aureus incubated for 60 to 90 mins by beta-lactamase reporter gene assay
# [15] = Inhibition of AgrC-2 in Staphylococcus aureus RN9372 incubated for 60 to 90 mins in presence of AIP agonist by beta-lactamase reporter gene assay
# [16] = Inhibition of AgrC-1 in Staphylococcus aureus AH1677 incubated for 24 hrs by fluorescence assay
# [17] = Drug degradation in ammonium carbonate solution 0.3 mg after 8 hrs after RP-HPLC analysis; format: physicochemical; conditions: read-out: Drug degradation
# [18] = Inhibition of AgrC-2 in Staphylococcus aureus AH430 incubated for 24 hrs by fluorescence assay
# [19] = Inhibition of AgrC-3 in Staphylococcus aureus AH1747 incubated for 24 hrs by fluorescence assay
# [20] = Inhibition of AgrC-4 in Staphylococcus aureus AH1872 incubated for 24 hrs by fluorescence assay
# [21] = Drug degradation in ammonium carbonate solution 0.3 mg after 24 hrs after RP-HPLC analysis; format: physicochemical; conditions: read-out: Drug degradation
# [22] = Drug degradation in ammonium carbonate solution 0.3 mg after 72 hrs after RP-HPLC analysis; format: physicochemical; conditions: read-out: Drug degradation
# [23] = biological target: T2, Receptor-histidine kinase AgrC (Staphylococcus aureus); assay: Activation of AgrC in early exponential phase Staphylococcus aureus RN6390B assessed as beta-lactamase activity incubated for 55 mins by spectrophotometric method
# [24] = biological target: T1, Receptor-histidine kinase AgrC; assay: Inhibition of AgrC in mid-exponential phase Staphylococcus aureus SA502A assessed as beta-lactamase activity incubated for 80 mins by spectrophotometric method
# Staphylococcus aureus [25] = assay: Agonist activity at AgrC-4 in Staphylococcus aureus RN9371 incubated for 60 to 90 mins by beta-lactamase reporter gene assay
# Staphylococcus aureus [26] = assay: Agonist activity at AgrC-1 in Staphylococcus aureus RN9222 incubated for 60 to 90 mins by beta-lactamase reporter gene assay
# [27] = Inhibition of AgrC-1 Staphylococcus aureus RN6390B by agr-blaZ reporter gene assay
# [28] = Inhibition of AgrC-2 Staphylococcus aureus SA564 by agr-blaZ reporter gene assay
smiles,measurement,setting,value
CCCCCCc1cc(C(=O)COc2ccc(C(C)C)cc2)c(O)cc1O,survival at 30 mg/kg,Staphylococcus aureus [1],100%
CCCCC/C=C/C1=C(CO)[C@@H](O)[C@H]2O[C@@]2(C/C=C(\C)C(=O)O)C1=O,IC50,Staphylococcus aureus [2],2500 nM
same,Activity,Staphylococcus aureus [3],100%
same,Activity,Staphylococcus aureus [4],50%
CC(C)[C@H](NC(=O)[C@H](CO)NC(=O)[C@H](C)N)C(=O)N[C@H]1CSC(=O)[C@H](Cc2ccccc2)NC(=O)[C@H](Cc2ccc(O)cc2)NC(=O)[C@H](C)NC(=O)[C@H](C)NC1=O (H-ASVCAAYF; thioester 4-C),EC50,[5],10.3 nM
CC(C)C[C@@H]1NC(=O)[C@H](CO)NC(=O)[C@H](CO)NC(=O)[C@@H](NC(=O)[C@H](C)NC(=O)[C@H](CC(N)=O)NC(=O)[C@@H](NC(=O)CN)C(C)C)CSC(=O)[C@H](Cc2ccccc2)NC1=O (H-GVNACSSLF; thioester 5-C),IC50,[6],2.9 nM
same,ED50,[7],3.6 nM
same,IC50,[8],3.2 nM
same,ED50,Staphylococcus aureus [9],30 nM
same,IC50,[10],40 nM
same,IC50,[11],1 nM
same,IC50,[12],86 nM
same,IC50,[13],12 nM
CC[C@H](C)[C@H](N)C(=O)N[C@@H](CC(N)=O)C(=O)N[C@H]1CSC(=O)[C@H](CC(C)C)NC(=O)[C@H](CC(C)C)NC(=O)[C@H](Cc2ccccc2)NC(=O)[C@H](CC(=O)O)NC1=O (H-INCDFLL; thioester 3-C),ED50,Staphylococcus aureus [14],26 nM
same,IC50,[10],70 nM
same,IC50,[15],6 nM
same,IC50,[12],150 nM
same,IC50,[16],5.05 nM
same,degraded at 8 h,[17],100%
CC[C@H](C)[C@H](N)C(=O)N[C@@H](CC(N)=O)C(=O)N[C@H]1CNC(=O)[C@H](CC(C)C)NC(=O)[C@H](CC(C)C)NC(=O)[C@H](Cc2ccccc2)NC(=O)[C@H](C)NC1=O (H-IN[Dap]AFLL; lactam 3-C),IC50,[16],1.2 nM
same,IC50,[18],2.19 nM
same,IC50,[19],0.0551 nM
same,IC50,[20],0.192 nM
same,degraded at 24 h,[21],10%
same,degraded at 72 h,[22],40%
CC[C@H](C)[C@@H]1NC(=O)[C@H](Cc2ccccc2)NC(=O)[C@H](CC(=O)O)NC(=O)[C@@H](NC(=O)[C@@H](NC(=O)[C@H](CO)NC(=O)[C@@H](N)Cc2ccc(O)cc2)[C@@H](C)O)CSC(=O)[C@H](CCSC)NC1=O (H-YSTCDFIM; thioester 4-C),ED50,[23],10.2 nM
same,IC50,[24],3.4 nM
same,IC50,[8],3.1 nM
same,ED50,Staphylococcus aureus [25],26000 nM
same,ED50,Staphylococcus aureus [26],28 nM
same,IC50,[15],25 nM
same,IC50,[11],3 nM
CC[C@H](C)[C@@H]1NC(=O)[C@H](Cc2ccccc2)NC(=O)[C@H](C)NC(=O)[C@@H](NC(=O)[C@@H](NC(=O)[C@H](CO)NC(=O)CCCOc2ccc(Cc3ccccc3)cc2)[C@@H](C)O)CSC(=O)[C@H](CCSC)NC1=O (X1-STCAFIM; thioester 3-C),IC50,[27],295 nM
same,IC50,[28],19 nM
CC[C@H](C)[C@@H]1NC(=O)[C@H](Cc2ccccc2)NC(=O)[C@H](C)NC(=O)[C@@H](NC(=O)[C@@H](NC(=O)[C@H](CO)NC(=O)CCCOc2ccc(C(=O)c3ccccc3)cc2)[C@@H](C)O)CSC(=O)[C@H](CCSC)NC1=O (X2-STCAFIM; thioester 3-C),IC50,[27],21 nM
same,IC50,[28],4 nM
